Here are results for four compounds from patent US20220298098A1, “HALOGENATED COMPOUNDS, PROCESS AND USES THEREOF” (Ciimar - Centro Interdisciplinar De Investigaçäo Marinha E …, priority 2019, published 2022).

Values after ≈ are worked out from the molar mass of the structure shown. Where two headings read alike, the source gives them in different places.

Assay [1] deals with coagulase-negative staphylococci. Description: Biofilm formation inhibition, quantification of total biomass by violet crystal staining. In kind it is cell-based. The conditions noted are these: for IC50: read-out: calculated concentration that inhibits the biofilm formation by 50%. As to the method: The biofilm forming ability of coagulase-negative staphylococci, when exposed to compounds 1, 2, 9 and 16, was assessed by quantification of total biomass by violet crystal staining.

Assay [2] relates to Staphylococcus aureus S54F9. Description: Broth microdilution antibiotic susceptibility test. In kind it is cell-based. As to the method:
The methanolic extract was submitted to solid phase extraction (Waters Sep-Pak® Vac 35 cc 10 g C18 Cartridges) using mixtures of water/methanol (4:1 to 1:4; 4 to 8 column volumes each), yielding an enriched fraction free of chlorophylls and other pigments. The fraction was then chromatographed using semi-preparative HPLC conditions with a gradient of water/acetonitrile 19:1 to 0:1 (both with 0.1% of formic acid) as mobile phase. Fractions were collected every 30 s (total run time of 70 min) and 140 fractions were collected into 96-well deep well plates, and a 25% of a 67 mg 140-well fractionation was tested against Staphylococcus aureus S54F9. In order to carry out this broth microdilution antibiotic susceptibility test, 50 μL of each HPLC fraction resuspended in 14% MeOH in water were mixed with 50 μL of the S. aureus suspension at 10^6 CFU/mL in 2×MHB in a microtiter plate (final desired inoculum=5·10^5 CFU/mL, final concentration of MeOH in bioassay plate=7%, final volume per well=100 μL). The microtiter plate was replicated onto a selective/differential solid medium (Manitol Salt Agar) in order to distinguish between bacteriostatic and bactericidal activities. Growth controls (broth with bacterial inoculum, no bioactive molecule) as well as sterility (broth only) and solvent controls (broth with 7% MeOH in water) were included.
On the technique in general: Broth dilution looks for growth in wells or tubes with falling amounts of substance.

The mark [3] stands for this setting: coagulase-negative staphylococci biofilm.
The mark [4] stands for this setting: S54F9, calculated from the antibiotic activities of the fractions in FIG. 1, range across compounds 1, 2, 9 and 16, read-out: predicted minimal inhibitory concentrations (MICs) against S. aureus.

As usually defined, the inhibition is the drop in the measured response relative to a control, in per cent. Read a low inhibition as a response near the control. In assay [1] (biofilm formation, 70 mg/L), `C[C@H](OC(=O)CCCCCCCCCCCCl)C(=O)O` [Compound 1, (S)-2-[(12-chlorododecanoyl)oxy]propanoic acid] yielded an inhibition at 70 µg/mL of 0%. This compound also gave an inhibition at 140 µg/mL in assay [1] (biofilm formation, 140 mg/L) of 74%. Besides, in assay [1] (setting [3]), the IC50 was 55.1 µg/mL (≈ 180 µM). The MIC in assay [2] (setting [4]) is 1790 to 5790 µg/mL (≈ 5830 to 18900 µM).

As to `CCCCCCC(Cl)CCCCC(=O)O[C@@H](C)C(=O)O` (stereo partly drawn) [Compound 2, (S)-2-[(6-chlorododecanoyl)oxy]propanoic acid], the inhibition at 16 µg/mL in assay [1] (biofilm formation, 16 mg/L) was 0%. The same compound returned an inhibition at 32.12 µg/mL in assay [1] (biofilm formation, 32.12 mg/L) of 31%. Also, in assay [1] (biofilm formation, 64.25 mg/L), the inhibition at 64.25 µg/mL is 74%. Besides, the inhibition at 128.5 µg/mL in assay [1] (biofilm formation, 128.5 mg/L) is 89%. This compound came in with an inhibition at 257 µg/mL in assay [1] (biofilm formation, 257 mg/L) of 90%. The IC50 in assay [1] (setting [3]) was 94.6 µg/mL (≈ 308 µM). Moreover, the MIC in assay [2] (setting [4]) is 1790 to 5790 µg/mL (≈ 5830 to 18900 µM).

Compound `C[C@H](OC(=O)CCCCC(Cl)CCCCCCCl)C(=O)O` (stereo partly drawn) [Compound 9, (S)-2-[(6,12-dichlorododecanoyl)oxy]propanoic acid] showed an inhibition at 5.65 µg/mL in assay [1] (biofilm formation, 5.65 mg/L) of 0%. Also, the inhibition at 11.25 µg/mL in assay [1] (biofilm formation, 11.25 mg/L) turned out to be 22%. In assay [1] (biofilm formation, 22.5 mg/L), this compound displayed an inhibition at 22.5 µg/mL of 56%. In assay [1] (biofilm formation, 35 mg/L), 35 µg/mL produced 62% inhibition. In addition, in assay [1] (biofilm formation, 90 mg/L), the inhibition at 90 µg/mL came out at 66%. In assay [1] (biofilm formation, 180 mg/L), this compound yielded an inhibition at 180 µg/mL of 76%. The same compound registered an inhibition at 360 µg/mL in assay [1] (biofilm formation, 360 mg/L) of 87%. Further, in assay [1] (biofilm formation, 721 mg/L), the inhibition at 721 µg/mL is 88%. The IC50 in assay [1] (setting [3]) was 20.1 µg/mL (≈ 58.9 µM). Moreover, in assay [2] (setting [4]), the MIC was 1790 to 5790 µg/mL (≈ 5250 to 17000 µM).

Regarding `C[C@H](OC(=O)CCCCC(Cl)CCCCCC(Cl)Cl)C(=O)O` (stereo partly drawn) [Compound 16, (S)-2-[(6,12,12-trichlorododecanoyl)oxy]propanoic acid], in assay [1], the inhibition at 37.5 µg/mL stood at 0%, 75 µg/mL produced 68% inhibition, the inhibition at 150 µg/mL came out at 71% and the IC50 is 43.4 µg/mL (≈ 116 µM). Besides, the MIC in assay [2] (S54F9, read-out: predicted minimal inhibitory concentrations (MICs) against S. aureus) is 1790 to 5790 µg/mL (≈ 4760 to 15400 µM).
